Source: patent US20250352539A1, “COMBINATION THERAPY FOR TREATING CANCER” (AstraZeneca AB, priority 2022, published 2025)
Where “and” joins values, the source holds several entries; their conditions need not be identical. Equal values may be shown once. Read-outs that look alike come from different tables or passages of the source.

Legend:
Assay in all cases: 144-hour CellTiter-Glo 2.0 proliferation assay
Format in all cases: cell-based
[1] = test system: Gp2D; details: Gp2D colorectal; monotherapy; read-out: mono GI50
Protocol: (§1) Combination profiling was carried out in a panel of cancer cell lines utilising Horizon Discovery's High Throughput Screening platform.
(§2) Cell lines that have been preserved in liquid nitrogen are thawed and expanded in growth media (see Table 1). Once cells have reached expected doubling times, screening begins. Cells are seeded in 25 μl of growth media in black 384-well tissue culture treated plates (seeding density as noted in Table 11).
(§3) Cells are equilibrated in assay plates via centrifugation and placed at 37° C. 5% CO2 for twenty-four hours before treatment.
(§4) Compounds are transferred to assay plates using and Echo acoustic liquid handling system. 25 nl of each compound was added at the appropriate concentration for all combination dose points. Therefore, final assay volume would be […]. Assay plates are incubated with compound for 6 days and are then analysed using CellTiter-Glo 2.0. All data points are collected via automated processes and are subject to quality control and analysed.
(§5) Growth Inhibition (GI) is reported as a measure of cell growth. The GI percentages are calculated by applying the following test and equation: […]
(§6) where T is the signal measure for a test article, V is the untreated/vehicle-treated control measure, and Vo is the untreated/vehicle control measure at time zero (also colloquially referred as T0 plates). This formula is derived from the Growth Inhibition calculation used in the National Cancer Institute's NCI-60 high throughput screen. For the purposes of this report, all data analysis was performed in Growth Inhibition (except where noted).

[2] = test system: KE-39; details: KE-39 gastric; monotherapy; read-out: mono GI50
Protocol: as §1, §2, §3, §4, §5, §6

[3] = test system: OVSAHO; details: Homo sapiens; OVSAHO ovarian; monotherapy; read-out: mono GI50
Protocol: as §1, §2, §3, §4, §5, §6

[4] = test system: KP-3; details: KP-3 pancreatic; monotherapy; read-out: mono GI50
Protocol: as §1, §2, §3, §4, §5, §6

[5] = test system: SNU-668; details: SNU668; SNU-668 gastric; monotherapy; read-out: mono GI50
Protocol: as §1, §2, §3, §4, §5, §6

[6] = test system: LS-513; details: Homo sapiens; LS-513 colorectal; monotherapy; read-out: mono GI50
Protocol: as §1, §2, §3, §4, §5, §6

[7] = test system: OVCAR-3; details: Homo sapiens; OVCAR-3 ovarian; monotherapy; read-out: mono GI50
Protocol: as §1, §2, §3, §4, §5, §6

[8] = test system: HGC-27; details: Homo sapiens; HGC-27 gastric; monotherapy; read-out: mono GI50
Protocol: as §1, §2, §3, §4, §5, §6

[9] = test system: LMSU; details: LMSU gastric; monotherapy; read-out: mono GI50
Protocol: as §1, §2, §3, §4, §5, §6

[10] = test system: IM-95; details: Homo sapiens, IM95; IM-95 gastric; monotherapy; read-out: mono GI50
Protocol: as §1, §2, §3, §4, §5, §6

[11] = test system: LoVo; details: Homo sapiens; LoVo colorectal; monotherapy; read-out: mono GI50
Protocol: as §1, §2, §3, §4, §5, §6

[12] = test system: HT-115; details: HT115; HT-115 colorectal; monotherapy; read-out: mono GI50
Protocol: as §1, §2, §3, §4, §5, §6

[13] = test system: AGS; details: Homo sapiens; AGS gastric; monotherapy; read-out: mono GI50
Protocol: as §1, §2, §3, §4, §5, §6

[14] = test system: COV362; details: COV362 ovarian; monotherapy; read-out: mono GI50
Protocol: as §1, §2, §3, §4, §5, §6

[15] = test system: SW620; details: Homo sapiens, SW-620; SW620 colorectal; monotherapy; read-out: mono GI50
Protocol: as §1, §2, §3, §4, §5, §6

[16] = test system: KURAMOCHI; details: KURAMOCHI ovarian; monotherapy; read-out: mono GI50
Protocol: as §1, §2, §3, §4, §5, §6

[17] = test system: MIA PaCa-2; details: monotherapy, read-out: mono GI50
Protocol: as §1, §2, §3, §4, §5, §6

[18] = test system: Caov-3; details: Homo sapiens; Caov-3 ovarian; monotherapy; read-out: mono GI50
Protocol: as §1, §2, §3, §4, §5, §6

[19] = test system: OVK18; details: OVK18 ovarian; monotherapy; read-out: mono GI50
Protocol: as §1, §2, §3, §4, §5, §6

[20] = test system: HCT-116; details: Homo sapiens; HCT-116 colorectal; monotherapy; read-out: mono GI50
Protocol: as §1, §2, §3, §4, §5, §6

[21] = test system: SK-OV-3; details: Homo sapiens; SK-OV-3 ovarian; monotherapy; read-out: mono GI50
Protocol: as §1, §2, §3, §4, §5, §6

[22] = test system: NCI-SNU-1; details: NCI-SNU-1 gastric; monotherapy; read-out: mono GI50
Protocol: as §1, §2, §3, §4, §5, §6

[23] = test system: SW837; details: Homo sapiens; SW837 colorectal; monotherapy; read-out: mono GI50
Protocol: as §1, §2, §3, §4, §5, §6

[24] = test system: HPAF-II; details: Homo sapiens; HPAF-II pancreatic; monotherapy; read-out: mono GI50
Protocol: as §1, §2, §3, §4, §5, §6

[25] = test system: MKN74; details: Homo sapiens, MKN-74; MKN74 gastric; monotherapy; read-out: mono GI50
Protocol: as §1, §2, §3, §4, §5, §6

[26] = test system: BxPC-3; details: monotherapy, read-out: mono GI50
Protocol: as §1, §2, §3, §4, §5, §6

[27] = test system: SNU-324; details: SNU-324 pancreatic; monotherapy; read-out: mono GI50
Protocol: as §1, §2, §3, §4, §5, §6

[28] = test system: OV7; details: OV7 ovarian; monotherapy; read-out: mono GI50
Protocol: as §1, §2, §3, §4, §5, §6

[29] = test system: TOV-21G; details: Homo sapiens, TOV21G; TOV-21G ovarian; monotherapy; read-out: mono GI50
Protocol: as §1, §2, §3, §4, §5, §6

Compound C[C@@H]1COCCN1c1cc(C2([S@](C)(=N)=O)CC2)nc(-c2ccnc3[nH]ccc23)n1 [AZD6738, 4-{4-[(3R)-3-Methylmorpholin-4-yl]-6-[1-((R)—S-methylsulfonimidoyl)cyclopropyl]pyrimidin-2-yl}-1H-pyrrolo[2,3-b]-pyridine] has a GI50 [1] of 501 nM, a GI50 [2] of 1470 nM and a GI50 [3] of 581 nM. For the same compound, the GI50 [4] was 1280 nM and 1900 nM, the GI50 [5] was 291 nM and the GI50 [6] was 645 nM. For the same compound, the GI50 [7] was 370 nM, the GI50 [8] was 1150 nM and the GI50 [9] was 1710 nM. It also gave a GI50 [10] of 250 nM, a GI50 [11] of 401 nM and a GI50 [12] of 1610 nM. For the same compound, the GI50 [13] was 1210 nM, the GI50 [14] was 1060 nM and the GI50 [15] was 853 nM. The GI50 [16] was 728 nM, the GI50 ([17]; Homo sapiens, MIA PaCa-2, MIA PaCa-2 pancreatic) was 1200 nM and the GI50 ([17]; MIA PaCa-2 pancreatic) was 1930 nM. The GI50 [18] was 197 nM, the GI50 [19] was 921 nM and the GI50 [20] was 687 nM. It also gave a GI50 [21] of 1280 nM, a GI50 [22] of 1090 nM and a GI50 [23] of 924 nM. For the same compound, the GI50 [24] was 1030 nM, the GI50 [25] was 741 nM and the GI50 ([26]; BxPC-3 pancreatic) was 1090 nM. The GI50 ([26]; Homo sapiens, BXPC-3, BxPC-3 pancreatic) was 1080 nM, the GI50 [27] was 476 nM and 534 nM and the GI50 [28] was 1920 nM. The GI50 [29] was 374 nM.
